A short description of this series: Pharmacokinetics in Male Cynomolgus Monkeys. To be noted: cynomolgus monkey, plasma; for Vd: read-out: Vdss. The series is classed as in vivo. The procedure:
Assay 5. Pharmacokinetics in Male Cynomolgus Monkeys
The pharmacokinetic (PK) profile in plasma of two compounds of the present invention was determined in male cynomolgus monkeys following single dose IV (5 mg/kg) and PO (10 mg/kg) administration. This study was performed under non-GLP conditions, and unless otherwise stated, all analytical reagents were standard laboratory reagent grade. The study was conducted in accordance with IACUC guidelines in compliance with the Animal Welfare Act, the Guide for the Care and Use of Laboratory Animals.
Male cynomolgus monkeys, non-naïve, are acceptable species to support PK studies for compounds intended for use in humans. The animals were supplied by Hainan Jingang Laboratory Animal Co. Ltd (Nayangxintan Fucheng Town, Qiongshan District, Haikou Hainan Province, P.R. China) or another qualified source. During in-life, the animals were individually housed in stainless-steel mesh cages that are in accordance with the National Research Council “Guide for the Care and Use of Laboratory Animals”. Animals were fed twice daily with approximately 120 g of certified monkey diet. These amounts were adjusted as necessary based on food consumption of the group or an individual body weight changes of the group or an individual and/or changes in the certified diet. In addition, animals received fruit daily as nutritional enrichment and reverse osmosis (RO) water was available to all animals, ad libitum. RO water was analyzed every three months and every batch of feed was analyzed before using. Feed and water analyses records were maintained in the facility records. The room(s) were controlled and monitored for relative humidity range of 40-70% (any excursion from this range for more than 3 hours was documented as a deviation) and temperature range of 18-26° C. (any excursion from this range was documented as a deviation) with 10 to 20 air changes/hour. The room was on a 12-hour light/dark cycle except when interruptions were necessitated by study activities. Normal healthy animals weighing >2 kg and age ≥2 years old were selected for studies. The monkeys were identified by a unique skin tattoo on chest.
2-[4-[[4-[1-(2,6-dioxo-3-piperidyl)-3-methyl-2-oxo-benzimidazol-5-yl]-1-piperidyl]methyl]cyclohexyl]-7-isopropoxy-N-pyrazolo[1,5-a]pyrimidin-3-yl-imidazo[1,2-a]pyridine-6-carboxamide, as described in Example 48 (“Compound 48”), and 2-((1R,4S)-4-((4-(1-(2,6-dioxopiperidin-3-yl)-3-methyl-2-oxo-2,3-dihydro-1H-benzo[d]imidazol-5-yl)piperidin-1-yl)methyl)cyclohexyl)-N-(1-((1S,2R)-2-fluorocyclopropyl)-2-oxo-1,2-dihydropyridin-3-yl)-7-isopropoxyimidazo[1,2-a]pyridine-6-carboxamide, as described in Example 169 (“Compound 169”), were each formulated by dissolving the compound in polyethylene glycol (PEG400) (10%) with stirring, followed by the slow addition of 11.11% 2-Hydroxypropyl-beta-cyclodextrin (HPβCD) (90%) in water. Vehicle dose was PEG400 (10%) and 11.11% HP-β-CD (90%) in water. Formulations and vehicle were freshly prepared on of the day of dosing and stored at room temperature until used.
All animals were weighed prior to drug administration. The animals were divided into intravenous (IV) group and per os (PO) group for each compound tested, with 3 animals in each group. The vehicle dosing group included IV and PO groups, making a total of 6 groups of 3 animals each, for 18 animals total. The IV dose was administered by intravenous bolus injection into the cephalic or saphenous vein. The vein used for the dosing was not used for blood sample collection for the first 4 hours post dose. The PO dose was administered by nasogastric tube. The nasogastric PO doses were flushed using 3 mL of vehicle (approximately 3 times volume of nasogastric tube). […] The dosing volume was 2.5 mL/kg for the IV groups and 5 mL/kg for the PO groups. The dosing concentration was 2 mg/mL for both IV and PO groups. Feeding conditions were overnight fasting for PO group but not for IV group. […]

Each structure is given as a SMILES string. Like-named read-outs stand apart in the source and are kept apart here.

This note sets out measurements from patent publication US20240343733A1, “COMPOUNDS FOR TARGETING DEGRADATION OF IRAK4 PROTEINS” (BIOGEN MA INC., priority 2021, published 2024).

Usually AUC(0-t) stands for exposure summed from dosing to a finite time, without extrapolation to infinity. A high value points to high exposure. As a reminder, the clearance is the volume of plasma or blood freed of the substance per unit of time. High values mean a high capacity for elimination, low ones a low capacity for elimination. For orientation: half-life means the time needed for the level to fall by half in the phase considered. Lower therefore signals rapid decline. Broadly, the Cmax is the highest concentration seen after dosing. Broadly, the bioavailability is dose-corrected exposure relative to a reference, in per cent. Read a low bioavailability as little systemic uptake. Where the note is “5 mg/kg IV, mean”, `CC(C)Oc1cc2nc([C@H]3CC[C@H](CN4CCC(c5ccc6c(c5)n(C)c(=O)n6C5CCC(=O)NC5=O)CC4)CC3)cn2cc1C(=O)Nc1cnn2cccnc12` (stereo partly shown) [Compound 48, 2-[4-[[4-[1-(2,6-dioxo-3-piperidyl)-3-methyl-2-oxo-benzimidazol-5-yl]-1-piperidyl]methyl]cyclohexyl]-7-isopropoxy-N-pyrazolo[1,5-a]pyrimidin-3-yl-imidazo[1,2-a]pyridine-6-carboxamide] had an AUC(0-t) of 1740 ng·h/mL, a C0 of 5970 ng/mL, a clearance of 48.6 mL/min/kg and a half-life of 44.2 h. Besides, the Vd (5 mg/kg IV, mean) amounted to 70.3 L/kg. Under “10 mg/kg PO, mean”, this compound gave an exposure AUC(0-t) of 84.3 ng·h/mL, a maximum concentration (Cmax) of 18.3 ng/mL and a bioavailability of 2.42%.

For the setting “5 mg/kg IV, mean (Table 11)”, `CC(C)Oc1cc2nc([C@H]3CC[C@H](CN4CCC(c5ccc6c(c5)n(C)c(=O)n6C5CCC(=O)NC5=O)CC4)CC3)cn2cc1C(=O)Nc1cccn([C@H]2C[C@H]2F)c1=O` (stereo partly drawn) [Compound 169, 2-((1R,4S)-4-((4-(1-(2,6-dioxopiperidin-3-yl)-3-methyl-2-oxo-2,3-dihydro-1H-benzo[d]imidazol-5-yl)piperidin-1-yl)methyl)cyclohexyl)-N-(1-((1S,2R)-2-fluorocyclopropyl)-2-oxo-1,2-dihydropyridin-3-yl)-7-isopropoxyimidazo[1,2-a]pyridine-6-carboxamide] had an AUC(0-t) of 4680 ng·h/mL, a C0 of 10300 ng/mL, a clearance of 17 mL/min/kg and a half-life of 44.3 h. Moreover, the Vd (5 mg/kg IV, mean (Table 11)) is 32.6 L/kg. Where the note is “10 mg/kg PO, mean (Table 12)”, the AUC(0-t) was 1020 ng·h/mL, the highest concentration (Cmax) turned out to be 101 ng/mL and the bioavailability is 10.8%.
